Test results: patent US20100260689A1, “REDUCING SHAVING FREQUENCY” (BEIERSDORF AG, priority 2007, published 2010)

Assay: Cutting force during the shaving of human hair after 24 hours of exposure time (universal test apparatus with cutting force adapter)
Settings: products A-D in artificial sweat solution, five hair fibers cut, 90° cutting angle
Protocol: The measurements are thereby carried out on a universal test apparatus with cutting force adapter with four friction bearings and recorded by means of TestXpert software.
Five hair fibers were cut for the measurement.
Due to the influence of the cross section of the hair fiber, a preliminary grouping of the hair fibers to be cut is indispensable, which ensures that the products to be compared were carried out on hair fibers with the same cross section so that relative results are obtained.
Five hair fibers fixed on one side are cut with the aid of a commercially available blade (single-blade razor with replaceable blade) at a constant speed. The blade is thereby clamped in an adapter specially produced for this purpose, which ensures a guidance of the blade with the aid of four friction bearings. The determination of the cutting force is carried out by maximum force detection. At the same time, the friction force of the friction bearings is recorded during each measurement.
Measurement parameters: Measurement speed: 100 mm/min • Cutting angle: 90° • Blade grind: approx. 12°
The tested products A-D (see FIG. 1) comprise an artificial sweat solution composed of […]
In a further comparative test, the cutting force on human hair was measured after 24 hours of exposure time of three preparations (FIG. 2). […]

Aluminum chlorohydrate [aluminum chlorohydrates]
cutting force during the shaving of human hair (FIG. 1): reduction of the cutting force | cutting force during the shaving of human hair (FIG. 1, listed as ACH): cutting force reduction
